Assay results taken from paper PMC12067444, “Synthesis and Pharmacological Characterization of Novel Peripheral Cannabinoid-1 Receptor Blockers Based on a Tricyclic Scaffold” (Journal of Medicinal Chemistry, 2025).
Like-named read-outs stand apart in the source and are kept apart here.

Tests used:
mouse CB1R = molecular target: T1, mouse CB1R (Mus musculus, UniProt P47746); assay: Radioligand competition displacement binding, [3H]CP-55,940, mouse brain membranes; conditions: [3H]CP-55,940 displacement, mouse brain membranes; read-out: CB1R mKi
T1 construct: crude membranes from mouse brain; from tissue; host or cells: mouse brain cortex (without cerebellum) membranes, C57Bl/6Jhsd mice
T1 sequence (P47746 whole entry): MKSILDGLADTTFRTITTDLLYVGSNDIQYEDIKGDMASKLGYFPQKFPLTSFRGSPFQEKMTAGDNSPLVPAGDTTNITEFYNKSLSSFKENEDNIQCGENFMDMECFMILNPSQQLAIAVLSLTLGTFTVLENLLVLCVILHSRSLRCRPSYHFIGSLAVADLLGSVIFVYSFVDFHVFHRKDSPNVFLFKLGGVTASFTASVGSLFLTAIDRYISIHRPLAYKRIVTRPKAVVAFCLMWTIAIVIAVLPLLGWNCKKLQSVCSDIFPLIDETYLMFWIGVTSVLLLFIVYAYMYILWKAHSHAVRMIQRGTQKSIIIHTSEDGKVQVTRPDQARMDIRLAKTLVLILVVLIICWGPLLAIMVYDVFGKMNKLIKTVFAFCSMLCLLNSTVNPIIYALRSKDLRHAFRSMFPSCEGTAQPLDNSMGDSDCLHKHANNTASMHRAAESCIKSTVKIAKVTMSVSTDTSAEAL
Protocol: (§1) BNS compounds’ binding to CB1R and CB2R was assessed in competition displacement assays using [^3H]CP-55,940 as the radioligand and crude membranes from mouse brain or human cells overexpressing the CB1R or CB2R. All data were in triplicates with Ki values determined from three independent experiments. See SI for a detailed procedure.
Supplementary Experimental Methods
Brain membrane preparation for CB1R b i nd i ng . The mouse cortex, excluding the cerebellum, was dissected from 6-week-old C57Bl/6Jhsd mice (Harlan, Israel). The tissue was homogenized in 4 mL Buffer 1 (320 mM sucrose, 2 mM EDTA, 5 m M MgCl 2) using a glass-Teflon homogenizer and Hei-T ORQUE 200 (Heidolph; Cat# 17-012- 002- 25 -1) homogenizer set to 132 rpm. After homogenization, the mixture was centrifuged at 1,600 × g for 10 min at four °C, and the resulting supernatant was kept on ice. The pellet (P1) was discarded, and the remaining supernatant was subje cted to additional rounds of resuspension in 4 mL Buffer 1 followed by centrifugations, repeating this process three times. The pellets obtained from these centrifugations were discarded, and the three supernatant fractions were combined and subjected to higher-speed centrifugation at 39,000 × g for 15 min at f ou r °C. […] This resuspended pellet ( P 2 ) was incubated at 37 °C for 10 min and then centrifuged at 23, 000 × g for 10 min at 4°C.
After centrifugation, the pellet (P2) was resuspended in 5 mL Buffer 2 and further incubated at 30 °C for 40 min. Following this incubation, the suspension was centrifuged at 11,000 × g for 15 min at 4 °C. The pellet (P2) was resuspended in 2 mL Buffer 3 containing 50 mM TRIS HCl pH 7.4, 1 mM EDTA, and 3 mM MgCl 2. T h e protein concentration of the final suspension was determined using the BCA assay.
Subsequently, the suspension was diluted to a final concentration of 2 mg/mL in Buffer 3, aliquoted on ice, and stored at - 80 °C for further use.
(§2) CB1R and CB2R binding. Binding to the CB1R/CB2R was asse ss ed using competition displacement as says with [ 3H] CP -55,940 as the radioligand. Purified membranes from the mouse brain were utilized for CB1R assessment (as described above). Purified […]
membranes from cells overexpressing human CB2R ( Char les River CAT # A618) w e r e employed for CB2R evaluation.
For mouse CB1R binding assays, the novel compounds were dissolved in dimethyl sulfoxide (DMSO) to reach a final concentration of 10 mM. Each compound was then diluted in Buffer 3 (as described above) supplemented with 0.14% BSA, resulting in concentrations ranging from 10^-4 M to 10^-10 M. Triplicates of 100 µL of each concentration were dispensed into siliconized glass tubes. At the same time, 100 µL of Buffer 3 with 0.14% BSA was dispensed into three tubes as blanks. CB1R b r a i n membranes (20 µg) were added to each tube and diluted with 800 µL Buffer 3 with 0.14% BSA. Subsequently, 5 nM of [ 3H] CP -55,940 (100 µL) was added to each tube.
The tubes were sealed with parafilm and incubated with shaking (120 rpm) in a water bath at 30 °C for 1 hour. Following incubation, 2 mL of cold Buffer 4 (50 mM TRIS HCl pH 7.4, 1 mg/mL BSA) was added to each tube.
To harvest the content of each tube, a Brandel M-24R Vacuum Harvester was employed, with a wet WHATMAN GF/B filter paper (Fired) (one membrane for 12 tubes) placed in the harvester after being washed twice with Buffer 4. The filter membrane in the harvester absorbed the full content of each tube. Then, the filter membrane was wash ed six times with Buffer 4. Each filter -glass membrane tube wa s excised and transferred to a 20 mL glass tube co ntaining a 5 mL ULTIMA GOLD scintillation cocktail. […]

human CB1R = molecular target: T2, human CB1R (Homo sapiens, UniProt P21554); assay: Radioligand competition displacement binding, [3H]CP-55,940, membranes with human CB1R; conditions: for IC50: human CB1R, read-out: CB1R hIC50
T2 construct: purchased PerkinElmer RBHCB1M400UA
T2 sequence (P21554 whole entry): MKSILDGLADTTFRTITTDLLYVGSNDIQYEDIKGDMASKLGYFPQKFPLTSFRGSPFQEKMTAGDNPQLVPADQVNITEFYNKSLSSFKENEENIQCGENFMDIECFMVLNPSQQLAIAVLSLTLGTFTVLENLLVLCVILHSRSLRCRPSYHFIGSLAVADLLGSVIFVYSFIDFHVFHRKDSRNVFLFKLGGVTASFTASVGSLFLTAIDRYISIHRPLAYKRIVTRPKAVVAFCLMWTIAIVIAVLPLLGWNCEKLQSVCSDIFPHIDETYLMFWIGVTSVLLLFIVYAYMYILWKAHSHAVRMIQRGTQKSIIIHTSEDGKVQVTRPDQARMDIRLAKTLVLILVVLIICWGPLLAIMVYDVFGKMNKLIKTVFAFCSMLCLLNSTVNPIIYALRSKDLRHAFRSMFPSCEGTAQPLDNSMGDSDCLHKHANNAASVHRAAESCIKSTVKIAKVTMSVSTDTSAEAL
Protocol: as §1, with “procedure. […]” for “procedure.”
(§3) Radioligand binding assays were performed to asse ss the binding affinity of the different compounds to hCB1R (RBHCB1M4 00UA; Per kinElmer) or hCB 2R
(§4) (RBXCB2 M400UA; PerkinElmer). Competition displacement as says w ere employed, […]
(§5) utilizing [3H] C P -55,940 as the radioligand and crude membranes from humans for CB1 R or CB2 R. T he compounds were tested at various concentrations (eight points with a five-fold serial dilution starting at two m M) , and their ability to displace [3H] CP - 55, 940 was evaluated. Upon completion of the binding assays, the reaction mixture was filtered through GF/C plates, followed by four washes with cold wash buffer. After drying for one hour, 50 μL of Perkin Elmer Microscint 20 cocktail was added to the filter plate wells, and the bound [3H] C P -55,940 radioligand was measured using a β counter. All data points were duplicated, and Ki values were determined from two independent experiments using GraphPad Prism 7.02 analysis software, extracted through nonlinear regression analysis. […]

human CB2R = molecular target: T3, human CB2R (Homo sapiens, UniProt P34972); assay: Radioligand competition displacement binding, [3H]CP-55,940, membranes with human CB2R; conditions: [3H]CP-55,940 displacement, read-out: CB2R hKi
T3 construct: purchased PerkinElmer; Charles River RBXCB2M400UA; A618
T3 sequence (P34972 whole entry): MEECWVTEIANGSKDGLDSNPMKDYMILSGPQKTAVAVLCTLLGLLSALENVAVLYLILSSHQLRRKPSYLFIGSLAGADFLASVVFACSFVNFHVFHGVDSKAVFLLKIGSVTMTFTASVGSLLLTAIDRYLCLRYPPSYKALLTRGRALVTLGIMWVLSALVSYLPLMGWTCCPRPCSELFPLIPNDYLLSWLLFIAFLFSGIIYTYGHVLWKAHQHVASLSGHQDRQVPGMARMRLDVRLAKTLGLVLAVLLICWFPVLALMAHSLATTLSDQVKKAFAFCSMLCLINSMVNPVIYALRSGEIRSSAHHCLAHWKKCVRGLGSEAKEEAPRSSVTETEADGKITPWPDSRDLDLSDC
Protocol: as §1
Supplementary Experimental Methods […]
as §2
membranes from cells overexpressing human CB2R ( Char les River CAT # A618) w e r e employed for CB2R evaluation. […]
as §3, §4, §5
MgCl 2. The tissue was homogenized using a glass -Teflon and Hei-T ORQUE 200 homogenizer (Heidolph; Cat#17- 012- 002- 25 -1) set to 132 rpm. The resulting suspen sion underwent centrifugation at 48,000 × g for 20 min at four °C, and the supernatant was discarded. The pellet obtained was homogenized again and subjected to a second centrifugation under the same conditions. Subsequently, the resulting pellet […]
mM EGTA, 9 mM MgCl 2, and 150 mM NaCl, followed by homogenization. The protein concentration of the suspension was determined using the BCA assay, and the suspen sion was diluted to a final concentration of 2 mg/mL in assay buffer. The prepared suspension was aliquoted on ice and stored at - 80 °C for further use.

HepG2 cells = assay: Cell viability assay (CellTiter Glo); assay type: cell-based; conditions: 72 h; for IC50: Homo sapiens
Protocol: Cell viability assay. To assess the cell viability, which indicates the toxicity of the novel compounds, a total of 3,000 HepG2 cells were seeded into a 384-well plate. The compounds were then dispensed onto the cell plate using a Tecan D300e digital dispenser. Following compound addition, 35 μL CellTiter Glo reagent was added to all wells of the assay plate, and the plate was mixed for 30 sec on an or bital shaker to lyse cells. Subsequently, the plate was incubated at room temperature for 10 minutes. The luminescence signal was measured using a 384-well plate reader (EnVision). The obtained data were analyzed using XL-fit software (ID Business Solutions Ltd., Software version: XL fit 5. 5. 0. 5). The percentage of inhibition was calculated using the […]
Inhibition (%) = (1-Sample / ZPE) ×100
Sample represents the test compound's luminesc e nce signal, and ZPE represents the luminescence signal f r om the zer o-percent enzyme control.

in vitro = conditions: mouse
Protocol: (§6) Protein binding of test compound in mouse brain using equilibrium dialysis […]
(§7) method. Solution A (0. 5 mM) was prepared by mixing 10 µL of a 10 mM stock solution […]
(§8) with 190 µL of DMSO. Subsequently, Solution B (0.02 mM) was prepared by adding […]
(§9) 8 µL of solution A to 192 µL of 0.05 M sodium phosphate buffer. The final concentration of DMSO in Solution B was 4%.
(§10) A 96-well plate was initially prepared by dispensing 380 µL aliquots of brain […]
(§11) tissue into wells designated for the brain while t h e buffer was added to the remaining […]
(§12) wells to serve as a control. Subsequently, 20 µL of Solution B (containing 0.02 mM of […]
(§13) test and reference compounds) was spiked into the pre-loaded brain samples in the […]
(§14) plate. This step yielded a final test concentration of 1 µM, containing 0.2% DMSO. A duplicate system was establi shed for the dialysis sampl es wherein brain tissu e was prepared against buffer. Initially, 100 µL aliquots of blank dialysis buffer were applied to the receiver side of the dialysis chambers. Subsequently, 100 µL aliquots of the brain […]
(§15) tissue spiked with te st and reference compounds were applied to the donor side of the […]
(§16) T0 brain samples for initial concentrations were prepared in duplicate. A 25µL […]
(§17) aliquot of the brain spiked with test and reference compounds was transferred into a 96- […]
(§18) well sample preparation plate. An equivalent volume of blank buffer was then added […]
(§19) to each well. Af ter the 5-hour incubation period, aliquots of 25 µL wer e taken f r om t h e […]
(§20) dialysis apparatus's donor and receiver sides and transferred into new sample […]
(§21) preparation plates. An equal volume of the opposite matrix (blank buffer to brain and […]
(§22) vice versa) was added to each well, resulting in a final volume of 50 µL in each well.
(§23) The samples (both T0 and f i v e h) were then quenched with 200 µL of acetonitrile […]
(§24) containing internal standard (IS) and vortexed at 600 rpm for 10 minutes. After […]
(§25) vortexing, the samples were centrifuged at 5594 × g for 15 minutes. Subsequently, 50 […]
(§26) µL of the supernatants were transferred to a new 96-well plate and mixed with 50 µL […]
(§27) of Milli- Q water. T he sample plates wer e cover ed and stor ed in a f r eezer ( -20 ℃) until […]
(§28) respectively. For data analysis, the following equations wer e used:
(§29) % Bound = 100 × ([Donor]5h -[ Receiver] 5h) / [Donor] 5h
(§30) % Recovery= 100 × ([Donor]5h +[Receiver] 5h) / [Initial] 0h
(§31) Undiluted Fu (%) = (1/D) / [(1/Fu2-1 ) + 1/ D ]
(§32) Whereas; D: Dilution factor = Dilution factor of brain: 4

mouse brain tissue = assay: in vitro; conditions: mouse, 5 h, 1 µM
Protocol: as §6, §7, §8, §9, §10, §11, §12, §13, §14, §15, §16, §17, §18, §19, §20, §21, §22, §23, §24, §25, §26, §27, §28, §29, §30, §31, §32

Compound | Ki (mouse CB1R) | IC50 (human CB1R) | Ki (human CB2R) | Ki (human CB1R; [3H]CP-55,940 displacement, human CB1R membranes, read-out: CB1R hKi) | Bottom (%) of cell viability inhibition curve (HepG2 cells) | Slope of cell viability inhibition curve (HepG2 cells) | Top (%) of cell viability inhibition curve (HepG2 cells) | IC50 (HepG2 cells; read-out: cell viability Absolute IC50) | IC50 (HepG2 cells; read-out: cell viability relative IC50) | fraction unbound at 5 h, 1 µM (in vitro) | fraction unbound at 5 h, 1 µM (in vitro; tissue homogenate) | Fraction of bound (%) (mouse brain tissue) | Undiluted Bound (%) (mouse brain tissue)
CS(=O)(=O)NC1CCCOc2c1nn(-c1ccccc1Cl)c2-c1ccc(Cl)cc1 (stereo not shown) [BNS809, N-[2-(2-Chlorophenyl)-3-(4-chlorophenyl)-5,6,7,8-tetrahydrooxepino[3,2-c]pyrazol-8-yl]methanesulfonamide] | 33.8 nM | 8.5 nM | > 9000 nM |  |  |  |  |  |  |  |  |  | 
O=C(NC1CCCOc2c1nn(-c1ccccc1Cl)c2-c1ccc(Cl)cc1)C1CCN(S(=O)(=O)c2ccc(Cl)cc2)CC1 (stereo not shown) [BNS825, N-[2-(2-Chlorophenyl)-3-(4-chlorophenyl)-5,6,7,8-tetrahydrooxepino[3,2-c]pyrazol-8-yl]-1-(4-chlorophenyl)sulfonyl-piperidine-4-carboxamide] | 1.6 nM | 3.8 nM | 127 nM | 3.1 nM | -11.62% | -0.21 | 6.27% | > 100000 nM | > 100000 nM |  |  |  | 
CC(=O)CC(c1ccccc1)c1c(O)c2ccccc2oc1=O (stereo not shown) [Warfarin, reference compound] |  |  |  |  |  |  |  |  |  | 0.277 | 0.605 | 39.5% | 72.3%
